Entries after “also recorded” stand apart in the source; their conditions may differ. Like-named read-outs stand apart in the source and are kept apart here. Where no end group is shown, it is not given here.
Experiments:
[1] = test system: iGABAARs in human pancreatic islet β cells; type: cell-based
Protocol: (§1) Human islets were generously provided by the Nordic Network for Clinical Islet Transplantation, supported by EXODIAB and the Juvenile Diabetes Research Foundation. All procedures were approved by the regional ethics committee in Uppsala and informed consent obtained by appropriate measures from donors or their relatives. […] The islets were then hand-picked and cultured free-floating in CMRL 1066 (ICN Biomedicals, Costa Mesa, CA, USA) supplemented with 10 mM HEPES, 2 mM L-glutamine, 50 jig/ml gentamicin, 0.25 jig/ml fungizone (GIBCO, BRL, Gaithersburg, MD, USA), 20 jig/ml ciprofloxacin (Bayer Healthcare, Leverkusen, Germany), and 10 mM nicotinamide at 37° C. in humidified atmosphere containing 5% CO2, vol/vol and used in the experiments from second day of incubation up to 10 days of culturing.
(§2) The whole-cell patch-clamp configuration was obtained on intact islets using the blind patch-clamp technique (Hamill et al., 1981; Jin et al., 2011; Neher and Sakmann, 1976) and single-channel currents were recorded at room temperature (20-22° C.) or at 34° C. The single intact islet was held by the holding pipette and approached by the recording pipette from the other side (see FIG. 1a). The holding and recording pipettes were made from borosilicate glass. During experiments, the pancreatic islets were perfused with the extracellular solution (mM): 137 NaCl, 5.6 KCl, 2.6 CaCl2, 1.2 MgCl2, 10 HEPES and 20 glucose (pH 7.4 using NaOH) at the rate of 3 mL/min. The intracellular solution consisted of (mM): 135 CsCl, 30 CsOH, 1 MgCl2, 10 EGTA, 5 HEPES and 3 Mg-ATP (pH 7.2 with HCl). Drugs were purchased from Sigma-Aldrich (Steinheim, Germany) or Ascent Scientific (Bristol, UK). Pentobarbital, propofol, GLP-1 and the GABAAR antagonist SR95531 were dissolved in the extracellular solution. Diazepam, zolpidem and the GABAAR antagonist picrotoxin stock solutions were made in dimethyl sulfoxide (DMSO) and then dissolved in the extracellular solution. […] Recordings were done using an Axopatch 200B amplifier, filtered at 2 kHz, digitized on-line at 10 kHz using an analog-to-digital converter and Clampex 10.5 (Molecular Devices, CA, USA) software. The access resistance was monitored and if it changed by more than 25%, the recording was rejected. The single-channel parameters (amplitude, frequency/opening rate, conductance, open probability Po, mean current Imean and mean open time To) were analyzed by Channel3 (Nicholas Laver, Derek Laver, the University of Newcastle, Australia) and Clampfit 10.5 (Molecular Devices, USA). We used a simplified version of a model, previously established by Jones and Westbrook (Jones and Westbrook, 1995) to describe the activation of GABAA receptors (see FIG. 2a model scheme). Simulations of opening rate and mean open time were generated from this theoretical model using the ‘Q-matrix’ method of Colquhoun and Hawkes (Colquhoun and Hawkes, 1981, 1982). We accounted for the effects of missed events due to filtering using the ‘effective rate constant’ method of Blatz and Magleby (Blatz and Magleby, 1986) incorporating an event dead-time of 0.1 ms.

[2] = cited from earlier work
[3] = test system: iGABAARI; test: whole-cell patch-clamp single-channel currents in β cells of intact human islets, iGABAARI; type: cell-based; details: for GABA-activated single-channel conductance: 100 nM GABA; for reduction of Ka for GABA activation in T2D donors: T2D vs ND donors
Protocol: as §1, §2

[4] = test system: iGABAARII; test: whole-cell patch-clamp single-channel currents in β cells of intact human islets, iGABAARII; type: cell-based
Protocol: as §1, §2

[5] = test system: human islets; test: glucose-stimulated insulin secretion in human islets; type: cell-based
Protocol: The incubation medium was subsequently collected, the islets sonicated briefly (1-2 periods of 10 s) in acidic ethanol and frozen overnight. Samples from the medium and the islets were appropriately diluted and analyzed in duplicates for insulin using an immunoassay kit from Mesoscale Discovery (Rockville, MD, USA). Secretion was normalized to insulin content and expressed in relation to that at 20 mM glucose. In some experiments, the islets were placed in a closed 10-μL Teflon tubing perfusion. The chamber was perfused with buffer at a rate of 60 μL/min (AutoMate Scientific, Berkeley, CA). […] Three fractions were collected for each condition and analyzed for insulin. The results are presented as one data point per condition, which represents the average of the last two fractions at that condition. The first fraction was excluded since it was influenced by the preceding condition.

[6] = test system: insulin granule exocytosis in human islet cells; test: insulin granule exocytosis imaging by TIRF microscopy; type: cell-based
Protocol: The islets were dissociated into single cells in 0.0025% trypsin in cell dissociation buffer (Hank's based) for 3-5 minutes. Cells were washed once in serum-containing medium, plated onto 22-mm polylysine-coated coverslips and allowed to settle overnight. Adenovirus particles adNPY-Venus (Tsuboi et al., 2006) or adNPY-mCherry (Meur et al., 2010) was added and cells were imaged 24-36 hours later. Cells selected for experiments expressed the granule marker and appeared healthy. Cells were imaged in a standard solution containing (mM): 138 NaCl, 5.6 KCl, 1.2 MgCl2, 2.6 CaCl2, 20 D-glucose, 5 HEPES (pH 7.4 with NaOH) (Barg et al., 2002; Gandasi and Barg, 2014). For depolarization dependent exocytosis experiments, glucose was 10 mM and the solution supplemented with 2 μM forskolin and 200 μM diazoxide, a K^+-ATP-channel opener that prevents glucose-dependent depolarization. Exocytosis was then evoked with high K^+ solution (75 mM KCl equimolarly replacing NaCl). High K^+ was applied by computer-timed local pressure ejection through a glass pipette similar to those used for patch clamp. All experiments were carried out at ˜32° C. Cells were imaged using a custom-built lens-type total internal reflection (TIRF) microscope based on an Axiovert 135 microscope with a 100×/1.45 objective (Carl Zeiss). Excitation was from a DPSS laser at 491 (Cobolt, Stockholm, Sweden), controlled with an acousto-optical tunable filter (AA-Opto, France) and using dichroic Di01-R488/561 (Semrock) and emission filter FF01-523/610 (Semrock). Scaling was 160 nm per pixel and exposure time 100 ms per frame at 10 frames/s. Exocytosis events were found by eye. The moment of exocytosis was defined as the first significant change (2 standard deviations) from the pre-exocytosis baseline. This definition applied to both types of events, with or without preceding flash. The decay time was then defined as the time from exocytosis until the signal reached less than one third of the amplitude of the event. Traces were read out as DF, defined as average fluorescence in a 0.5 μm circle minus the average fluorescence in a surrounding annulus of 0.8 μm. The point of exocytosis was calculated by fitting the granule fluorescence during exocytosis with a discontinuous function (Eq 1), which assumes constant fluorescence before fusion, an inverted exponential decay just after fusion, and finally exponential decay during content release:
where t is time; c is average fluorescence in a 0.48 μm wide circle at the granule site; A1, A2 and A3 are the fluorescence values at the plateaus; τ1 and τ2 are the decay constants for the fluorescence increase after fusion and content release; and t1 and t2 are the times of fusion and release, respectively.

[7] = diazepam 1 μM, propofol 10 μM, pentobarbital 100 μM, zolpidem 200 nM
[8] = diazepam 1 μM, propofol 10 μM, pentobarbital 100 μM, zolpidem 100 or 200 nM
[9] = activated by interstitial GABA, room temperature
[10] = 20 mM glucose, with GABA, one T2D donor
[11] = GLP-1 application and following washout, n=5

CC(C)c1cccc(C(C)C)c1O [propofol]
effect on mean single-channel current (Imean) [1]: significantly increased | effect on opening frequency of iGABAARs [1]: significantly increased | modulation of iGABAAR-mediated single-channel currents [1]: enhanced

CN1C(=O)CN=C(c2ccccc2)c2cc(Cl)ccc21 [diazepam]
effect on mean single-channel current (Imean) [1, 7]: significantly increased | effect on opening frequency of iGABAARs [1, 7]: significantly increased | modulation of iGABAAR-mediated single-channel currents [1, 8]: enhanced

NCCCC(=O)O [GABA, gamma-aminobutyric acid]
time to maximum blood serum level of GABA ([2]; after administration in connection with ingestion of food): approximately 45 minutes | time after which blood serum levels of GABA markedly decrease ([2]; from the administration of GABA): approximately 90 minutes | GABA-activated single-channel conductance ([3]; islets from ND donors): 41±3 pS | GABA-activated single-channel conductance ([3]; islets from T2D donors): 55±5 pS | GABA concentration at maximal rate (frequency) of channel openings ([3]; ND donors): 100 nM | reduction of Ka for GABA activation in T2D donors ([3]; 34° C.): ~3 fold | reduction of Ka for GABA activation in T2D donors ([3]; RT): 6 fold | cord conductance [3, 9]: 37 pS | GABA concentration at peak opening rate ([4]; ND donors, 34° C.): 1 µM | increase of Ka on raising the temperature to 34° C. ([4]; ND donors, 34° C. vs RT): 23 fold | GABA concentration at peak opening rate ([4]; ND donors, room temperature): 0.1 µM | reduction of Ka for GABA activation in T2D donors ([4]; T2D vs ND donors, 34° C.): 300 fold | cord conductance [4, 9]: 76 pS | insulin secretion normalized to the 20 mM glucose response ([5]; 100 nM GABA, 10 ND donors): 1.6±0.2 | increase of insulin secretion ([5]; 100 nM GABA, 10 ND donors, average): approximately 60% | insulin secretion normalized to the 20 mM glucose response ([5]; GABA, islets from three ND donors): 0.7±0.01 | exocytosis ([6]; 20 mM glucose >10 min, GABA present, ND donors): ~5 granules/min | exocytosis events per area and time ([6]; 20 mM glucose >10 min, GABA present, two ND donors, n=6): 0.095±0.01 10^−3·tm^−2·s^−1 | exocytosis [6, 10]: ~1 granules/min | exocytosis events per area and time [6, 10]: 0.019±0.008 10^−3·tm^−2·s^−1 | exocytosis for an average-sized cell ([6]; 75 mM K+ depolarization, 100 nM GABA): ~150 granules/min | exocytosis events per area and time ([6]; 75 mM K+ depolarization, 100 nM GABA, n=7): 2.5±0.6 10^−3·tm^−2·s^−1 | loss of NPY-Venus from individual granules (decay constant) ([6]; 75 mM K+ depolarization, presence of GABA): 0.86 ± 0.09 s | GABA concentration above which receptors are desensitized and stop working [1]: exceeding 1000 nM | optimal GABA concentrations for active iGABAARs [1]: 100 nM to submicromolar | effect on mean current (Imean) ([1]; 100 nM GABA, Vp=−70 mV, 34° C.): significantly (P<0.05) enhanced | effect on open probability (Po) ([1]; 100 nM GABA, Vp=−70 mV, 34° C.): significantly (P<0.05) enhanced | GABA concentration at which GABA-activated Cl− currents were evoked ([1]; GABA applied 1 to 10^4 nM): > 10 nM | effect on mean open times To ([1]; islets from ND and T2D donors): did not affect | effect on rate (frequency) of channel openings ([1]; islets from ND and T2D donors): increased | GABA concentration at which channels start to desensitize ([1]; kinetic model): about 1 μM

picrotoxin [reference compound]
effect on the GABA-induced change of insulin secretion ([5]; picrotoxin added with GABA, ND donors): reversed | inhibition of iGABAAR (GABA-activated) currents ([1]; antagonist 100 μM where stated): inhibited

Cc1ccc(-c2nc3ccc(C)cn3c2CC(=O)N(C)C)cc1 [zolpidem]
effect on mean single-channel current (Imean) [1, 7]: not | effect on opening frequency of iGABAARs [1, 7]: not | modulation of iGABAAR-mediated single-channel currents [1, 8]: did not modulate and not

GLP-1: metabolic, gastrointestinal peptide hormone secreted by L-cells in the gut; enhances insulin secretion (HAEGTFTSDVSSYLEGQAAKEFIAWLVKGR; ends and bridges not checked; UniProt P01275 98-127, looked up) [reference compound]
effect on opening frequency of iGABAARI channels ([3]; GLP-1 50 pM, n=6): significantly increased | effect on single-channel conductance [3, 11]: did not significantly change | opening frequency / current enhancement after GLP-1 washout ([3]; post GLP-1 vs before GLP-1 application): remained, albeit at a reduced level; also recorded: remained significantly higher | effect on single-channel conductance [4, 11]: did not significantly change | time β-cells remember the GLP-1 activation after GLP-1 is no longer in circulation ([1]; GABA signalling stays elevated in absence of GLP-1): up to 30 minutes | effect on iGABAAR-mediated single-channel currents ([1]; GLP-1 50 pM in the presence of GABA 10 nM): potentiated

CCCC(C)C1(CC)C(=O)NC(=O)NC1=O (stereo not shown) [pentobarbital, 5-ethyl-5-(1-methylbutyl)-barbiturate]
effect on mean single-channel current (Imean) [1, 7]: significantly increased | effect on opening frequency of iGABAARs [1, 7]: significantly increased | modulation of iGABAAR-mediated single-channel currents [1, 8]: enhanced

Br.COc1ccc(-c2ccc(=N)n(CCCC(=O)O)n2)cc1 [SR95531]
inhibition of iGABAAR (GABA-activated) currents [1]: inhibited

From US12161695B2 (priority 2018, dated 2024)
